# Experimental data from patent publication US6197536A, “Methodology to produce, and purify and assay polypeptides with the proteolytic activity of the HCV NS3 protease” (priority 1995, dated 2001).
# Non-standard residues stand in square brackets, D forms with d. Residues, ends and D or L forms follow the SMILES beside them. No end group written: not given here. *: point of attachment. Dabcyl = CN(C)c1ccc(N=Nc2ccc(C(=O)*)cc2)cc1; EDANS = O=S(=O)(O)c1cccc2c(NCCN*)cccc12; AllylGly = C=CC[C@H](N)C(=O)O; Abu = CC[C@H](N)C(=O)O; Lac = C[C@H](O)C(=O)O
# Experiments:
# HCV NS3 protease [1] = target: T1, HCV NS3 protease (Hepatitis C virus genotype 1b, UniProt P26663); assay: Competitive inhibition of NS3 protease by decapeptides P6-P4' modified at position P1; assay type: biochemical
# T1 construct: The protein fragments contain variants of the protease domain of the HCV NS3 protein; added initiator Met (ATG start codon) (N); made in house
# Description: (§1) Cleavage was detected by separating the substrate from the hydrolysis products by reverse-phase HPLC. For this purpose the mixture containing the buffer and the peptide incubated with the protease was injected into a reverse-phase Lichrospher RP-18 column (Merck) and eluted with an acetonitrile gradient containing 0.10% trifluoracetic acid. The cleavage products were identified by co-injection of appropriate standards, and by mass spectrometry. For these experiments, proteins produced by one of the methods described in examples 1 and 2 were used.
# (§2) Dependence of the activity on temperature was analysed by means of an Arrhenius plot in which the logarithm of the kinetic constant Kcat is given as an inverse function of temperature.
# NS3 protease = target: T2, NS3 protease (Hepatitis C virus genotype 1b, UniProt P26663); assay type: biochemical, hepatitis C virus (HCV)
# T2 construct: The protein fragments contain variants of the protease domain of the HCV NS3 protein; added initiator Met (ATG start codon) (N); made in house
# Description: Using the HPLC-based assay, the following kinetic parameters were obtained for the radioactive depsipeptide substrate S1 (SEQ ID NO:44):
# Synthesis of the radioactive depsipeptide substrates allows set-up of a high-throughput assay for determination of NS3 protease activity as schematically illustrated in FIG. 11. The principle is the following: both the intact substrate and the N-terminal fragment that originates from enzyme cleavage (Ac-Asp-Glu-Met-Glu-Glu-Abu-OH) (SEQ ID NO:49) are extremely acid, whereas the C-terminal fragment [HO-CH(CH3)CO-Ser-His-Leu-Pro-Tyr-Lys(N^ε -[^3 H]-CH3 CO)-NH2 ] (SEQ ID NO:50) is, according to pH, neutral or basic. It is therefore possible to capture the two acidic species on an anionic exchange resin, leaving the C-terminal fragment in solution. If the C-terminal fragment contains a radioactive marker (in this case the tritiated acetate covalently bonded to the ε-amino group of the C-terminal lysine), the resin will be able to discriminate processed substrate from non-processed substrate, thus making it possible to quantify proteolytic activity by measuring the amount of radioactivity remaining in solution after incubation with the enzyme and treatment with the ion exchanger. […]
# Purification to >98% homogeneity was achieved through preparative HPLC on a Nucleosyl C-18 column (250×21 mm, 7 μm) using as eluents (A) 50 mM ammonium acetate, pH 6 and (B) acetonitrile. […] The kinetic parameters for this substrate, evaluated through the HPLC-based assay (see FIG. 14A), were the following:
# The buffer used for the assay is the following: 33 mM DTT, 50 mM Tris, pH 7, 50% glycerol, 2% CHAPS. […] The assay can be run in a cuvette or in a (96-well) microtitre plate, monitoring the fluorescence as a function of time (Excitation wavelength […], Emission wavelength […]). The increase in fluorescence upon substrate cleavage is 13-fold. […]
# HCV protease = target: T3, HCV protease (Hepatitis C virus genotype 1b, UniProt P26663); assay: Effect of chymostatin on HCV protease activity; assay type: biochemical; details: 100 μg/ml used in homogenisation
# T3 construct: added initiator Met (ATG start codon) (N); made in house; host or cells: E. coli BL21(DE3)
# Description: 1. Homogenisation in the presence of 100 μg/ml of the chymostatin protease inhibitor. […] In this way it was possible to purify a single molecular species with more than 95% of form 2.
# HCV NS3 protease [2] = details: Example 4 amide substrate
# Description: as §1, §2
# NS3 protease + Pep4A = assay: Automatic assay using a radioactive amide substrate with anionic exchanger capture; assay type: biochemical, hepatitis C virus (HCV); details: 3 hours at 23° C., 40 μM unlabeled peptide, 200 nM protease, 1 μM Pep4A
# Description: 400,000 cpm of the labelled peptide with a specific activity of 2-10 Ci/mmol. were incubated for 3 hours at 23° C. together with 40 μM (Km /2) of unlabeled peptide in the presence of 200 nM protease and 1 μM of Pep4A in 50 mM Tris pH 7.5, 50% glycerol, 3% CHAPS, 10 mM DTT. […] The fraction coming out of the exchanger is filtered, allowed to sediment or spun. The radioactivity is measured on the clear fraction, the amount of which is exclusively related to the right fragment (C-terminal), given that the amide substrate and the left hand fragment remain bound to the anionic exchanger. The addition of inhibitors causes a decrease in the release rate of the labelled cleaved fragment.
# [3] = system: CC(=O)N[C@@H](CC(=O)O)C(=O)N[C@@H](CS)C(=O)N[C@@H](CO)C(=O)N[C@H](C(=O)N1CCC[C@H]1C(=O)N[C@@H](CS)C(=O)N[C@@H](CO)C(=O)NCC(=O)N[C@@H](CO)C(=O)N[C@@H](Cc1c[nH]c2ccccc12)C(=O)O)[C@@H](C)O; assay: HPLC assay of peptide substrate cleavage by purified NS3 protease in the presence of Pep4A; assay type: biochemical, hepatitis C virus (HCV); details: other: Table 2, stoichiometric concentration, pH 7.5, 25.0 °C
# Description: (§3) As mentioned above, the protein NS4A is a cofactor of HCV protease. N and C-terminal deletion experiments have defined the peptide Pep4A with the sequence indicated in SEQ ID NO:6, as the minimum domain still capable of inducing optimal activation. In transfection or in vitro translation experiments the addition of polypeptides containing the minimum NS4A sequence is essential to give effective cleavage. […] The kinetic characteristics of this activation are described below. Using a titration experiment a stoichiometry of 1:1 was determined for this interaction at a concentration of […] of protease, indicating a Kd<300 nM.
# (§4) These kinetics were obtained both in the absence and in the presence of stechiometric concentrations of Pep4A. […] When the Km values for the single substrates are compared it becomes evident that the presence of two negative charges in P5 and in P6 determined the bonding effectiveness of a peptide substrate.
# [4] = system: CSCC[C@H](NC(=O)[C@H](CCC(=O)O)NC(=O)[C@H](CC(=O)O)NC(C)=O)C(=O)N[C@@H](CCC(=O)O)C(=O)N[C@@H](CCC(=O)O)C(=O)N[C@@H](CS)C(=O)N[C@@H](C)C(=O)N[C@@H](CO)C(=O)N[C@@H](Cc1c[nH]cn1)C(=O)N[C@@H](CC(C)C)C(=O)O; assay: as above; assay type: biochemical, hepatitis C virus (HCV); details: other: Table 2, stoichiometric concentration, pH 7.5, 25.0 °C
# Description: as §3, §4
# [5] = system: CSCC[C@H](NC(=O)[C@H](CO)NC(=O)[C@H](CS)NC(=O)[C@H](CS)NC(=O)[C@@H](NC(=O)[C@@H](NC(=O)[C@H](CC(=O)O)NC(=O)[C@H](CCC(=O)O)NC(C)=O)C(C)C)C(C)C)C(=O)N[C@@H](CO)C(=O)N[C@@H](Cc1ccc(O)cc1)C(=O)O; assay: as above; assay type: biochemical, hepatitis C virus (HCV); details: other: Table 2, stoichiometric concentration, pH 7.5, 25.0 °C
# Description: as §3, §4
# [6] = radioactive depsipeptide substrates, HPLC-based assay
# Sequence of HCV NS3 protease (P26663 1039-1206 limits assumed): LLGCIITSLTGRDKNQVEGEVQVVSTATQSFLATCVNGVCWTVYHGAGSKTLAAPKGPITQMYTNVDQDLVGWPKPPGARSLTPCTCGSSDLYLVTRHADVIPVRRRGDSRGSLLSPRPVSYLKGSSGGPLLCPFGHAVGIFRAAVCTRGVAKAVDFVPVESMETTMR
# T1 sequence (P26663 1027-1208): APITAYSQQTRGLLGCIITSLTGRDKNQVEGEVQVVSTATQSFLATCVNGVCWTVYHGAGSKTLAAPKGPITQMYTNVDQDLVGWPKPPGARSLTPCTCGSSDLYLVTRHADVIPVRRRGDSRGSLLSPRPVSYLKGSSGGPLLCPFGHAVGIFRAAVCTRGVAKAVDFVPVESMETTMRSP
# T2 sequence (P26663 1027-1208): as above
# T3 sequence (P26663 1027-1206): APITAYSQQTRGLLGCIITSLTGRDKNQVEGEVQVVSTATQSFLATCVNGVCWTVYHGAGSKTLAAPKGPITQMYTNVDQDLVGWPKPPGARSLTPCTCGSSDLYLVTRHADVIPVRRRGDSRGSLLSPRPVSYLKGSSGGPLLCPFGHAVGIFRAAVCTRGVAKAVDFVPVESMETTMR
# Sequence of NS3 protease + Pep4A (P26663 1039-1206, other chains not shown): as the sequence (P26663 1039-1206 limits assumed) above
compound,measurement,setting,value
CC[C@H](NC(=O)[C@H](CCC(=O)O)NC(=O)[C@H](CCC(=O)O)NC(=O)[C@H](CCSC)NC(=O)[C@H](CCC(=O)O)NC(=O)[C@H](CC(=O)O)NC(C)=O)C(=O)N[C@@H](C)C(=O)N[C@@H](CO)C(=O)N[C@@H](Cc1c[nH]cn1)C(=O)N[C@@H](CC(C)C)C(=O)O [Abu] (Ac-DEMEE[Abu]ASHL-OH),Ki,HCV NS3 protease [1],175 µM
C=CC[C@H](NC(=O)[C@H](CCC(=O)O)NC(=O)[C@H](CCC(=O)O)NC(=O)[C@H](CCSC)NC(=O)[C@H](CCC(=O)O)NC(=O)[C@H](CC(=O)O)NC(C)=O)C(=O)N[C@@H](C)C(=O)N[C@@H](CO)C(=O)N[C@@H](Cc1c[nH]cn1)C(=O)N[C@@H](CC(C)C)C(=O)O [Alg] (Ac-DEMEE[AllylGly]ASHL-OH),Ki,HCV NS3 protease [1],165 µM
"CC[C@H](NC(=O)[C@H](CCC(=O)O)NC(=O)[C@H](CCC(=O)O)NC(=O)[C@H](CC(=O)NCCNc1cccc2c(S(=O)(=O)O)cccc12)NC(=O)[C@H](CCC(=O)O)NC(=O)[C@H](CC(=O)O)NC(C)=O)C(=O)O[C@@H](C)C(=O)N[C@@H](CO)C(=O)N[C@@H](CCCCNC(=O)c1ccc(N=Nc2ccc(N(C)C)cc2)cc1)C(N)=O [S3, Ac-Asp-Glu-Asp-(EDANS)-Glu-Glu-Abu-.psi.[COO)-Ala-Ser-Lys-(DABCYL)NH2] (Ac-DED(EDANS)EE[Abu][Lac]SK(Dabcyl)-NH2)",kcat /Km,"NS3 protease; fluorogenic depsipeptide, same buffer",5342 M⁻¹ s⁻¹
CC(C)C[C@H](NC(=O)[C@@H](NC(=O)N[C@@H](Cc1ccccc1)C(=O)O)[C@@H]1CCN=C(N)N1)C(=O)N[C@H](C=O)Cc1ccccc1 [chymostatin],inhibition of HCV protease activity,HCV protease,does not inhibit
Ac-Asp-Glu-Met-Glu-Glu-Abu-.psi.-[COO]-Ala-Ser-His-Leu-Pro-Tyr-Lys(N^ ε -[^3 H]-CH3 CO)-NH2 [SEQ ID NO:44],Km,NS3 protease; [6],11 µM
same,kcat,NS3 protease; [6],0.15 s⁻¹
Ac-Asp-Glu-Met-Glu-Glu-Cys-Ala-Ser-His-Leu-Pro-Tyr-Lys-ε-(^3 H)Ac (XEMEECASHLPYX; N-acetyl; tritiated epsilon-acetyl) [SEQ ID NO:47],Km,HCV NS3 protease [2],79 µM
same,kcat,HCV NS3 protease [2],0.00817 s⁻¹
same,kcat /Km,HCV NS3 protease [2],103 M⁻¹ s⁻¹
same,peptide substrate cleaved,NS3 protease + Pep4A,20%
Ac-DEMEEAASHL [Ala],Ki,HCV NS3 protease [1],173 µM
Ac-DEMEETASHL [Thr],Ki,HCV NS3 protease [1],215 µM
Ac-DEMEEVASHL [Val],Ki,HCV NS3 protease [1],173 µM
HCV NS3 protease + Pep4A (NS4A cofactor peptide) (Hepatitis C virus (isolate BK)),Km,[3],320 µM
same,Km,[4],43 µM
same,kcat,[4],0.0233 s⁻¹
same,kcat/Km,[4],540 M⁻¹ s⁻¹
same,Km,[5],380 µM
same,kcat,[5],0.25 s⁻¹
same,kcat/Km,[5],650 M⁻¹ s⁻¹
